# Reference: patent publication US20260207623A1, “USE OF ESTETROL IN HEPATICALLY IMPAIRED PATIENTS” (ESTETRA SRL, priority 2022, published 2026)
# System: female subjects with normal hepatic function, mild, moderate or severe hepatic impairment
# Assay: Safety and tolerability (TEAEs, clinical laboratory, vital signs, physical examination) after a single oral dose of 20 mg E4 monohydrate in the hepatic impairment study
# Assay type: in vivo, human
# Settings: for TEAE by severity: Vascular disorders, severity Mild / TEAE: Back pain / TEAE: Diarrhea / TEAE: Gastrointestinal disorders / TEAE: General disorders and administration site conditions / TEAE: Haemarthrosis / TEAE: Headache / TEAE: Hypertension / TEAE: Musculoskeletal and connective tissue disorders / TEAE: Nervous system disorders / TEAE: Pain in extremity / TEAE: Pancreatitis / TEAE: Pyrexia / TEAE: Renal and urinary disorders / TEAE: Renal impairment / TEAE: Total Subjects with at Least One TEAE / TEAE: Vascular disorders / TEAE by severity: Back pain, severity Mild / TEAE by severity: Back pain, severity Moderate / TEAE by severity: Diarrhea, severity Mild / TEAE by severity: Diarrhea, severity Moderate / TEAE by severity: Gastrointestinal disorders, severity Mild / TEAE by severity: Gastrointestinal disorders, severity Moderate / TEAE by severity: General disorders and administration site conditions, severity Mild / TEAE by severity: Haemarthrosis, severity Mild / TEAE by severity: Headache, severity Mild / TEAE by severity: Headache, severity Moderate / TEAE by severity: Hypertension, severity Mild / TEAE by severity: Musculoskeletal and connective tissue disorders, severity Mild / TEAE by severity: Musculoskeletal and connective tissue disorders, severity Moderate / TEAE by severity: Nervous system disorders, severity Mild / TEAE by severity: Nervous system disorders, severity Moderate / TEAE by severity: Pain in extremity, severity Mild / TEAE by severity: Pancreatitis, severity Moderate / TEAE by severity: Pyrexia, severity Mild / TEAE by severity: Renal and urinary disorders, severity Mild / TEAE by severity: Renal impairment, severity Mild: single oral 20 mg
# Method: This was a Phase 1, multi-centre, open-label, PK, and safety study of a single oral dose of 20 mg E4 monohydrate in female subjects with normal hepatic function (Group 1), mild hepatic impairment (Group 2), moderate hepatic impairment (Group 3), and severe hepatic impairment (Group 4), as defined using the Child-Pugh classification at Screening.
# Safety and tolerability assessments consisted of treatment-emergent AEs (TEAEs), clinical laboratory, vital signs, physical examination, and gynecological examination. Assessments were performed in accordance with Table 2 and Table 3 in Section 2.5.1.
# AEs/TEAEs were recorded after signing of the ICF until completion of the follow up visit. Any clinically significant observations in results of clinical laboratory, vital signs, or physical examinations were recorded as AEs.
# A TEAE is defined as any event not present prior to administration of the study drug or any event already present that worsens in either severity or frequency following exposure to the study drug.
# The below listed tests were to be performed by the local laboratories at time points indicated in the Schedule of Assessments (Table 2).
# Systolic and diastolic blood pressure and pulse were recorded after the subject had been resting for at least 5 minutes in the supine position at time points indicated in the Schedule of Assessments (Table 2). These assessments were made using an automated device. Body temperature and respiratory rate were measured subsequently.
# A complete physical examination consisting of a review of all body systems was performed at time points indicated in the Schedule of Assessments (Table 2). A symptom-directed physical examination could be conducted at any time per Investigator's discretion.
# 2.6.2.2 Evaluation of Safety and Tolerability Safety and tolerability were assessed through TEAEs, clinical laboratory, vital signs, and physical examination findings, and any other parameter that was relevant for safety assessment.
# A listing of all individual AEs is provided. Summary tables of TEAEs are presented by system organ class (SOC) based on the MedDRA terminology list (preferred terms): a table containing the number of subjects experiencing AEs by hepatic function, a table containing the number of subjects experiencing SAEs by hepatic function (if applicable), a table by hepatic function and relationship, and a table by hepatic function and severity.
# [1] = Normal hepatic function (N = 8)
# [2] = Severe hepatic impairment (N = 8)
smiles,measurement,setting,value
"C[C@]12CC[C@@H]3c4ccc(O)cc4CC[C@H]3[C@@H]1[C@@H](O)[C@@H](O)[C@@H]2O [E4 monohydrate, estetrol monohydrate]","TEAE by severity: Vascular disorders, severity Mild",[1],0 (0.0) n (%)
same,TEAE: Back pain,[1],1 (12.5) n (%)
same,TEAE: Diarrhea,[1],1 (12.5) n (%)
same,TEAE: Gastrointestinal disorders,[1],2 (25.0) n (%)
same,TEAE: General disorders and administration site conditions,[1],0 (0.0) n (%)
same,TEAE: Haemarthrosis,[1],0 (0.0) n (%)
same,TEAE: Headache,[1],0 (0.0) n (%)
same,TEAE: Hypertension,[1],0 (0.0) n (%)
same,TEAE: Musculoskeletal and connective tissue disorders,[1],1 (12.5) n (%)
same,TEAE: Nervous system disorders,[1],0 (0.0) n (%)
same,TEAE: Pain in extremity,[1],0 (0.0) n (%)
same,TEAE: Pancreatitis,[1],1 (12.5) n (%)
same,TEAE: Pyrexia,[1],0 (0.0) n (%)
same,TEAE: Renal and urinary disorders,[1],0 (0.0) n (%)
same,TEAE: Renal impairment,[1],0 (0.0) n (%)
same,TEAE: Total Subjects with at Least One TEAE,[1],2 (25.0) n (%)
same,TEAE: Vascular disorders,[1],0 (0.0) n (%)
same,"TEAE by severity: Back pain, severity Mild",[2],1 (12.5) n (%)
same,"TEAE by severity: Back pain, severity Moderate",[2],0 (0.0) n (%)
same,"TEAE by severity: Diarrhea, severity Mild",[2],0 (0.0) n (%)
same,"TEAE by severity: Diarrhea, severity Moderate",[2],0 (0.0) n (%)
same,"TEAE by severity: Gastrointestinal disorders, severity Mild",[2],0 (0.0) n (%)
same,"TEAE by severity: Gastrointestinal disorders, severity Moderate",[2],0 (0.0) n (%)
same,"TEAE by severity: General disorders and administration site conditions, severity Mild",[2],0 (0.0) n (%)
same,"TEAE by severity: Haemarthrosis, severity Mild",[2],0 (0.0) n (%)
same,"TEAE by severity: Headache, severity Mild",[2],0 (0.0) n (%)
same,"TEAE by severity: Headache, severity Moderate",[2],0 (0.0) n (%)
same,"TEAE by severity: Hypertension, severity Mild",[2],0 (0.0) n (%)
same,"TEAE by severity: Musculoskeletal and connective tissue disorders, severity Mild",[2],1 (12.5) n (%)
same,"TEAE by severity: Musculoskeletal and connective tissue disorders, severity Moderate",[2],0 (0.0) n (%)
same,"TEAE by severity: Nervous system disorders, severity Mild",[2],0 (0.0) n (%)
same,"TEAE by severity: Nervous system disorders, severity Moderate",[2],0 (0.0) n (%)
same,"TEAE by severity: Pain in extremity, severity Mild",[2],0 (0.0) n (%)
same,"TEAE by severity: Pancreatitis, severity Moderate",[2],0 (0.0) n (%)
same,"TEAE by severity: Pyrexia, severity Mild",[2],0 (0.0) n (%)
same,"TEAE by severity: Renal and urinary disorders, severity Mild",[2],1 (12.5) n (%)
same,"TEAE by severity: Renal impairment, severity Mild",[2],1 (12.5) n (%)
same,"TEAE by severity: Vascular disorders, severity Mild",[2],0 (0.0) n (%)
same,TEAE: Back pain,[2],1 (12.5) n (%)
same,TEAE: Diarrhea,[2],0 (0.0) n (%)
same,TEAE: Gastrointestinal disorders,[2],0 (0.0) n (%)
same,TEAE: General disorders and administration site conditions,[2],0 (0.0) n (%)
same,TEAE: Haemarthrosis,[2],0 (0.0) n (%)
same,TEAE: Headache,[2],0 (0.0) n (%)
same,TEAE: Hypertension,[2],0 (0.0) n (%)
same,TEAE: Musculoskeletal and connective tissue disorders,[2],1 (12.5) n (%)
same,TEAE: Nervous system disorders,[2],0 (0.0) n (%)
same,TEAE: Pain in extremity,[2],0 (0.0) n (%)
same,TEAE: Pancreatitis,[2],0 (0.0) n (%)
same,TEAE: Pyrexia,[2],0 (0.0) n (%)
same,TEAE: Renal and urinary disorders,[2],1 (12.5) n (%)
same,TEAE: Renal impairment,[2],1 (12.5) n (%)
same,TEAE: Total Subjects with at Least One TEAE,[2],1 (12.5) n (%)
same,TEAE: Vascular disorders,[2],0 (0.0) n (%)
same,"TEAE by severity: Back pain, severity Mild",Total (N = 32),1 (3.1) n (%)
same,"TEAE by severity: Back pain, severity Moderate",Total (N = 32),1 (3.1) n (%)
same,"TEAE by severity: Diarrhea, severity Mild",Total (N = 32),2 (6.3) n (%)
same,"TEAE by severity: Diarrhea, severity Moderate",Total (N = 32),1 (3.1) n (%)
same,"TEAE by severity: Gastrointestinal disorders, severity Mild",Total (N = 32),2 (6.3) n (%)
same,"TEAE by severity: Gastrointestinal disorders, severity Moderate",Total (N = 32),2 (6.3) n (%)
same,"TEAE by severity: General disorders and administration site conditions, severity Mild",Total (N = 32),1 (3.1) n (%)
same,"TEAE by severity: Haemarthrosis, severity Mild",Total (N = 32),1 (3.1) n (%)
same,"TEAE by severity: Headache, severity Mild",Total (N = 32),1 (3.1) n (%)
same,"TEAE by severity: Headache, severity Moderate",Total (N = 32),1 (3.1) n (%)
same,"TEAE by severity: Hypertension, severity Mild",Total (N = 32),2 (6.3) n (%)
same,"TEAE by severity: Musculoskeletal and connective tissue disorders, severity Mild",Total (N = 32),3 (9.4) n (%)
same,"TEAE by severity: Musculoskeletal and connective tissue disorders, severity Moderate",Total (N = 32),1 (3.1) n (%)
same,"TEAE by severity: Nervous system disorders, severity Mild",Total (N = 32),1 (3.1) n (%)
same,"TEAE by severity: Nervous system disorders, severity Moderate",Total (N = 32),1 (3.1) n (%)
same,"TEAE by severity: Pain in extremity, severity Mild",Total (N = 32),1 (3.1) n (%)
same,"TEAE by severity: Pancreatitis, severity Moderate",Total (N = 32),1 (3.1) n (%)
same,"TEAE by severity: Pyrexia, severity Mild",Total (N = 32),1 (3.1) n (%)
same,"TEAE by severity: Renal and urinary disorders, severity Mild",Total (N = 32),1 (3.1) n (%)
same,"TEAE by severity: Renal impairment, severity Mild",Total (N = 32),1 (3.1) n (%)
same,"TEAE by severity: Vascular disorders, severity Mild",Total (N = 32),2 (6.3) n (%)
same,TEAE: Back pain,Total (N = 32),2 (6.3) n (%)
same,TEAE: Diarrhea,Total (N = 32),3 (9.4) n (%)
same,TEAE: Gastrointestinal disorders,Total (N = 32),4 (12.5) n (%)
same,TEAE: General disorders and administration site conditions,Total (N = 32),1 (3.1) n (%)
same,TEAE: Haemarthrosis,Total (N = 32),1 (3.1) n (%)
same,TEAE: Headache,Total (N = 32),2 (6.3) n (%)
same,TEAE: Hypertension,Total (N = 32),2 (6.3) n (%)
same,TEAE: Musculoskeletal and connective tissue disorders,Total (N = 32),4 (12.5) n (%)
same,TEAE: Nervous system disorders,Total (N = 32),2 (6.3) n (%)
same,TEAE: Pain in extremity,Total (N = 32),1 (3.1) n (%)
same,TEAE: Pancreatitis,Total (N = 32),1 (3.1) n (%)
same,TEAE: Pyrexia,Total (N = 32),1 (3.1) n (%)
same,TEAE: Renal and urinary disorders,Total (N = 32),1 (3.1) n (%)
same,TEAE: Renal impairment,Total (N = 32),1 (3.1) n (%)
same,TEAE: Total Subjects with at Least One TEAE,Total (N = 32),9 (28.1) n (%)
same,TEAE: Vascular disorders,Total (N = 32),2 (6.3) n (%)
same,number of TEAEs considered related to the study drug,"diarrhea, mild intensity, 1 subject in the moderate group",1 TEAE
same,subjects reporting TEAE diarrhea,normal hepatic function group,1 subjects
same,overall safety and tolerability,"single oral dose of 20 mg, normal hepatic function, mild, moderate or severe hepatic impairment",safe and well tolerated
same,"deaths, SAEs, other significant AEs","whole study, monohydrate","No deaths, SAEs, or other significant AEs occurred"
